These results are taken from patent publication US12319703B2, “Macrocyclic fused pyrazoles as Mcl-1 inhibitors” (ASCENTAGE PHARMA (SUZHOU) CO., LTD., priority 2019, dated 2025).

For one series, the system named is NCI-H929 cells. In words: Cell viability assay (NCI-H929 cells), CCK-8. It is filed as cell-based. As to conditions: Homo sapiens, NCI-H929, 24 h, WST, 5% FBS. As to the method:
Cell Viability Assay (NCI-H929 Cells)
NCI-H929 cells were obtained from American Type Culture Collection (ATCC). Cells were maintained in the recommended culture medium (RPMI 1640) with 10% FBS and 0.05 mM BME at 37° C. and an atmosphere of 5% CO2.
The effect of Compounds on cell viability was determined using Cell Counting Kit-8 (CCK-8) assay according to the manufacturer's instructions. 95 μL of NCI-H929 cell suspension (20000 cells/well) in culture medium were seeded into 96-well plates and cultured 4 hrs. Each tested compound was serially diluted in DMSO, then 5 μL of the compound or DMSO was diluted in 95 μL medium once more. At last, 5 μL of the compound dilution was added to the corresponding well of the cell plate. After the addition of the tested compound, the cells were incubated at 37° C. in an atmosphere of 5% CO2 for 24 hrs. At the end, 10 μL of CCK-8 solution was added to each well of the plate and incubated for 1-4 hours. The plates were read at 450 nm on the microplate reader (BioTek Synergy 1MF). The readings were normalized to the vehicle cells, and the IC50 was calculated by nonlinear regression analysis using GraphPad Prism 6 software.

Another series in a line: Kinetic solubility assay. Type of series: physicochemical. Conditions: pH 6.5 PBS buffer, HPLC; for solubility: PBS buffer pH 6.5, aqueous buffer, thermodynamic from solid, read-out: Solubility (pH 6.5, μg/mL). As to the method:
Representative Compounds of the Disclosure were tested in a solubility assay with pH 6.5 PBS buffer. PBS buffer was prepared by dissolving 4.86 g of potassium dihydrogen phosphate and 5.09 g of disodium hydrogen phosphate dodecahydrate in 1 L of ultrapure water to have final pH value of 6.5. In the solubility assay, 0.5 mg of test sample was dissolved in 1 mL of methanol and the stock solution was transferred into 2 mL EP tube, and evaporated at 50° C. for 3 h. To the tube was added 1 mL of PBS buffer and the mixture was stirred and shaken for 1-2 h. The solution was allowed to stand overnight and then filtered before HPLC analysis. Another 1.5 mg of the sample was dissolved in 3 mL of methanol to prepare a calibration curve with a series of concentration range of 5-500 μM. The solubility of each sample was determined by the measured peak area in HPLC.

For series [1], the target named is T1, Mcl-1 protein (residues 171-323) (Homo sapiens, UniProt Q07820).
T1 construct: Tag-free Mcl-1 protein (residues 171-323) was used in the FP assay
T1 sequence (Q07820 171-323): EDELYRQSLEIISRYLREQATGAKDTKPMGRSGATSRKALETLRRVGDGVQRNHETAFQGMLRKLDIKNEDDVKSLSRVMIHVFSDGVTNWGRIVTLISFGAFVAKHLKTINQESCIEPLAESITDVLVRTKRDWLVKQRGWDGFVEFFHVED
The series is described as follows: Inhibition of Mcl-1 by fluorescence polarization (FP) competitive binding assay. Conditions: FAM-Bid tracer 2 nM, Mcl-1 20 nM, 30 min. The protocol:
Inhibition of Mcl-1 by Fluorescence Polarization (FP) Assay.
The method used a fluorescein labelled peptide (FAM-Bid) which binds to the Mcl-1 protein leading to an increased anisotropy measured in milli-polarization (mP) values using a plate reader.
A 10-points serial dilution of each compound was prepared in DMSO and 5 μL solution was transferred into flat bottomed, 96-well back plate (final DMSO concentration 5%). 120 μL of Buffer (PBS, 0.01% BGG (Sigma Cat. #SRE0011), 0.01% Triton X-100), containing the Fluorescein labelled peptide (Final concentration 2 nM) and Mcl-1 protein (final concentration 20 nM) was then added. […] 10-points dose response curves were plotted with GraphPad software using Sigmoidal Dose-Response Model and the IC50 values were determined by nonlinear regression fitting of the competition curves.
Background: In fluorescence polarisation assays a small probe gives low polarisation when free and higher when bound to something large.

The subject of the next series is OPM-2 cells. In words: Cell viability assay (OPM-2 cells), CCK-8. It is filed as cell-based. Conditions: Homo sapiens, OPM-2, 24 h, WST, 5% FBS, read-out: OPM2 (WST, 5% FBS). As to the method:
Cell Viability Assay (OPM-2 Cells)
OPM-2 cells were obtained from Deutsche Sammlung von Mikroorganismen und Zellkulturen GmbH (DSMZ). […]
The effect of representative Compounds of the Disclosure on cell viability was determined using Cell Counting Kit-8 (CCK-8) assay (Shanghai Life iLab Bio Technology) according to the manufacturer's instructions. Each tested compound was serially diluted in culture medium, 100 μL of the compound dilution was added into 96-well plates. 100 μL of an OPM-2 cell suspension (20000 cells/well) in culture medium were seeded into the corresponding well of the plate and the cells were incubated at 37° C. in an atmosphere of 5% CO2 for 24 hours. In the next day, 20 μL of CCK-8 solution was added to each well of the plate and incubated for 4 hours.
The plates were read at 450 nm on the microplate spectrophotometer (SpectraMax plus 384, Molecular devices). The readings were normalized to the vehicle cells, and the IC50 was calculated by nonlinear regression analysis using GraphPad Prism 6 software.

Structures are written as SMILES. Converted amounts (≈) assume the structure as drawn.

As to `Cc1c2c(nn1C)CSCc1cc(n(C)n1)CSc1cc(c3ccccc3c1)OCCCc1c(C(=O)O)n(C)c3c-2c(Cl)ccc13` [AZD5991, (Z)-1^6-chloro-1^1,2^1,2^5,6^1-tetramethyl-1H,2^1H,6^1H-10-oxa-4,8-dithia-1(7,3)-indola-2(4,3),6(3,5)-dipyrazola-9(3,1)-naphthalenacyclotridecaphane-1^2-carboxylic acid, reference compound], the IC50 in the series with NCI-H929 cells was 47 nM. For the same molecule, the solubility in the series “Kinetic solubility assay” is < 1 µg/mL.
For `Cn1nc2cc1CSc1cc(c3ccc(F)cc3c1)OCCCc1c(C(=O)O)n(C)c3c(c(Cl)ccc13)-c1c(nn3c1CCCC3)CSC2` [compound 26, (Z)-1^6-chloro-96-fluoro-1^1,6^1-dimethyl-2^4,2^5,2^6,2^7-tetrahydro-1^1H,6^1H-10-oxa-4,8-dithia-2(3,2)-pyrazolo[1,5-a]pyridina-1(7,3)-indola-6(3,5)-pyrazola-9(3,1)-naphthalenacyclotridecaphane-1^2-carboxylic acid], the IC50 in series [1] came to 30.9 nM; in the series with OPM-2 cells it was 133 nM; with NCI-H929 cells, 44 nM. Besides, the solubility in the series “Kinetic solubility assay” turned out to be 1 µg/mL (≈ 1.4 µM).
For `Cn1nc2cc1CSc1cc(c3ccccc3c1)OCCCc1c(C(=O)O)n(C)c3c(c(Cl)ccc13)-c1c(nn3c1CCCCC3)CSC2` [compound 23, (Z)-1^6-chloro-1^1,6^1-dimethyl-2^5,2^6,2^7,2^8-tetrahydro-1^1H,2^4H,6^1H-10-oxa-4,8-dithia-2(3,2)-pyrazolo[1,5-a]azepina-1(7,3)-indola-6(3,5)-pyrazola-9(3,1)-naphthalenacyclotridecaphane-1^2-carboxylic acid], the IC50 in series [1] was 10 nM; with OPM-2 cells, 195 nM; in the series with NCI-H929 cells it was 100 nM. In addition, in the series “Kinetic solubility assay”, the solubility was < 1 µg/mL.
For `Cc1c2c(nn1C)CN(S(C)(=O)=O)Cc1cc(n(C)n1)CSc1cc(c3ccc(F)cc3c1)OCCCc1c(C(=O)O)n(C)c3c-2c(Cl)ccc13` [compound 48, (R)-(Z)-1^6-chloro-9^6-fluoro-1^1,2^1,2^5,6^1-tetramethyl-4-(methylsulfonyl)-1^1H,2^1H,6^1H-10-oxa-8-thia-4-aza-1(7,3)-indola-2(4,3),6(3,5)-dipyrazola-9(3,1)-naphthalenacyclotridecaphane-1^2-carboxylic acid], the “Solubility (pH 6.5, μg/mL)” value in the series “Kinetic solubility assay” came to 3 μg/mL.
With `Cn1nc2c(Cl)c1CSc1cc(c3ccccc3c1)OCCCc1c(C(=O)O)n(C)c3c(c(Cl)ccc13)-c1c(nn3c1CCCC3)CSC2` [compound 24, (E)-1^6,6^4-dichloro-1^1,6^1-dimethyl-2^4,2^5,2^6,2^7-tetrahydro-1^1H,6^1H-10-oxa-4,8-dithia-2(3,2)-pyrazolo[1,5-a]pyridina-1(7,3)-indola-6(3,5)-pyrazola-9(3,1)-naphthalenacyclotridecaphane-1^2-carboxylic acid], the IC50 in series [1] amounted to 14.3 nM; in the series with OPM-2 cells it was 4860 nM; in the series with NCI-H929 cells it was 1640 nM. The solubility in the series “Kinetic solubility assay” was < 1 µg/mL.
For `Cc1c2c(nn1C)CN(S(C)(=O)=O)Cc1cc(n(C)n1)CSc1cc(c3ccccc3c1)OCCCc1c(C(=O)O)n(C)c3c-2c(Cl)ccc13` [compound 36, (Z)-1^6-chloro-1^1,2^1,2^5,6^1-tetramethyl-4-(methylsulfonyl)-1^1H,2^1H,6^1H-10-oxa-8-thia-4-aza-1(7,3)-indola-2(4,3),6(3,5)-dipyrazola-9(3,1)-naphthalenacyclotridecaphane-1^2-carboxylic acid], in that order: 19 nM, 317 nM, 71 nM and 16 µg/mL (≈ 21.8 µM).
With `Cc1c2c(nn1C)CN(S(C)(=O)=O)Cc1cc(n(C)n1)CSc1cc(c3ccc(F)cc3c1)OCCCc1c(C(=O)O)n(C)c3c-2c(Cl)ccc13` [compound 45, (Z)-1^6-chloro-9^6-fluoro-1^1,2^1,2^5,6^1-tetramethyl-4-(methylsulfonyl)-1^1H,2^1H,6^1H-10-oxa-8-thia-4-aza-1(7,3)-indola-2(4,3),6(3,5)-dipyrazola-9(3,1)-naphthalenacyclotridecaphane-1^2-carboxylic acid], the “Solubility (pH 6.5, μg/mL)” value in “Kinetic solubility assay” is reported as >400 μg/mL.
On the same count and under the same terms, the figure for `Cn1nc2cc1CSc1cc(c3ccc(F)cc3c1)OCCCc1c(C(=O)O)n(C)c3c(c(Cl)ccc13)-c1c(nn3c1COCC3)CSC2` (atropisomer, axis not shown) [compound 40, (R)-(Z)-1^6-chloro-9^6-fluoro-1^1,6^1-dimethyl-26,27-dihydro-1^1H,2^4H,6^1H-10-oxa-4,8-dithia-2(3,2)-pyrazolo[5,1-c][1,4]oxazina-1(7,3)-indola-6(3,5)-pyrazola-9(3,1)-naphthalenacyclotridecaphane-1^2-carboxylic acid] is 74 μg/mL.
With `Cn1nc2cc1CSc1cc(c3ccc(F)cc3c1)OCCCc1c(C(=O)O)n(C)c3c(c(Cl)ccc13)-c1c(nn3c1COCC3)CSC2` (atropisomer, axis not shown) [compound 39, (S)-(Z)-1^6-chloro-9^6-fluoro-1^1,6^1-dimethyl-26,27-dihydro-1^1H,2^4H,6^1H-10-oxa-4,8-dithia-2(3,2)-pyrazolo[5,1-c][1,4]oxazina-1(7,3)-indola-6(3,5)-pyrazola-9(3,1)-naphthalenacyclotridecaphane-1^2-carboxylic acid], the “Solubility (pH 6.5, μg/mL)” value in the series “Kinetic solubility assay” is listed as <1 μg/mL.
As for `Cc1c2c(nn1C)CN(S(C)(=O)=O)Cc1cc(n(C)n1)CSc1cc(c3ccc(F)cc3c1)OCCCc1c(C(=O)O)n(C)c3c-2c(Cl)ccc13` [compound 47, (S)-(Z)-1^6-chloro-9^6-fluoro-1^1,2^1,2^5,6^1-tetramethyl-4-(methylsulfonyl)-1^1H,2^1H,6^1H-10-oxa-8-thia-4-aza-1(7,3)-indola-2(4,3),6(3,5)-dipyrazola-9(3,1)-naphthalenacyclotridecaphane-1^2-carboxylic acid], the “Solubility (pH 6.5, μg/mL)” value in the series “Kinetic solubility assay” is listed as <1 μg/mL.
Regarding `Cn1c(C(=O)O)c2c3ccc(Cl)c(c31)-c1c(nn3c1CCC3)CSCc1ccc(cn1)CSc1cc(c3ccc(F)cc3c1)OCCC2` [compound 31, 1^6-chloro-9^6-fluoro-1^1-methyl-2^5,2^6-dihydro-1^1H,2^4H-10-oxa-4,8-dithia-1(7,3)-indola-2(3,2)-pyrrolo[1,2-b]pyrazola-6(2,5)-pyridina-9(3,1)-naphthalenacyclotridecaphane-1^2-carboxylic acid], the results for the IC50 (in series [1]; in the series with OPM-2 cells; with NCI-H929 cells) were 14 nM, 125 nM and 63 nM, respectively.
With `Cn1c(C(=O)O)c2c3ccc(Cl)c(c31)-c1c(nn3c1CCC3)CSCc1csc(n1)CSc1cc(c3ccccc3c1)OCCC2` [compound 3, (Z)-1^6-chloro-1^1-methyl-2^5,2^6-dihydro-1^1H,2^4H-10-oxa-4,8-dithia-6(4,2)-thiazola-1(7,3)-indola-2(3,2)-pyrrolo[l,2-b]pyrazola-9(3,1)-naphthalenacyclotridecaphane-1^2-carboxylic acid], the IC50 in series [1] amounted to 8.7 nM; in the series on OPM-2 cells, 6580 nM; in the series on NCI-H929 cells, 5110 nM.
